Test results from ChEMBL document CHEMBL4190285, “Borapetoside E, a Clerodane Diterpenoid Extracted from Tinospora crispa, Improves Hyperglycemia and Hyperlipidemia in High-Fat-Diet-Induced Type 2 Diabetes Mice” (J Nat Prod, 2017).
Activity calls are given as the source filed them. The rule behind the calls is not given here.

How the values were obtained:
Mus musculus [1] = assay: Down regulation of LXRalpha mRNA expression in HFD-induced obese C57BL/6J mouse liver at 20 to 40 mg/kg, ip administered twice daily for 2.5 days measured at 2 hrs post last dose by RT-PCR analysis; assay type: functional, organism-based
Mus musculus [2] = assay: Increase in oxygen consumption in HFD-induced obese C57BL/6J mouse at 40 mg/kg, ip administered twice daily for 2.5 days incubated for 12.6 hrs under dark condition followed by redosing on day 3 for 2 times; assay type: functional, organism-based
Mus musculus [3] = assay: Antihyperglycemic activity in high fat diet-induced obese C57BL/6J mouse assessed as reduction in blood glucose level at 20 to 40 mg/kg, ip administered twice daily for 2.5 days measured after 2 hrs post last dose; assay type: functional, organism-based
Mus musculus [4] = assay: Antihyperglycemic activity in high fat diet-induced obese C57BL/6J mouse assessed as reduction in blood glucose level at 20 to 40 mg/kg, ip administered twice daily for 2.5 days measured at 3 days post last dose; assay type: functional, organism-based
Mus musculus [5] = assay: Improvement in insulin resistance in high fat diet-induced obese C57BL/6J mouse assessed as increase in phosphorylated GSK3beta level in liver at 40 mg/kg, ip administered twice daily for 2.5 days measured at 2 hrs post last dose by Western blot analysis; assay type: functional, organism-based
Mus musculus [6] = assay: Improvement in insulin resistance in high fat diet-induced obese C57BL/6J mouse assessed as increase in GLUT2 expression in skeletal muscle at 40 mg/kg, ip administered twice daily for 2.5 days measured at 2 hrs post last dose by Western blot analysis; assay type: functional, organism-based
Mus musculus [7] = assay: Improvement in insulin resistance in high fat diet-induced obese C57BL/6J mouse assessed as reduction in fasting serum insulin level at 40 mg/kg, ip pretreated twice daily for 2.5 days followed by insulin challenge at 2 hrs post last dose measured up to 2 hrs by ELISA based ITT; assay type: functional, organism-based
Mus musculus [8] = assay: Antihyperlipidemic activity in high fat diet-induced obese C57BL/6J mouse assessed as serum triglyceride levels at 20 mg/kg, ip administered twice daily for 2.5 days measured at 2 hrs post last dose (reference value: 1.31 +/- 0.48 mmol/L); assay type: functional
Mus musculus [9] = assay: Antihyperlipidemic activity in high fat diet-induced obese C57BL/6J mouse assessed as serum free fatty acid levels at 20 mg/kg, ip administered twice daily for 2.5 days measured at 2 hrs post last dose (reference value: 1.41 +/- 0.3 mmol/L); assay type: functional
Mus musculus [10] = assay: Antihyperlipidemic activity in high fat diet-induced obese C57BL/6J mouse assessed as serum triglyceride levels at 40 mg/kg, ip administered twice daily for 2.5 days measured at 2 hrs post last dose (reference value: 1.31 +/- 0.48 mmol/L); assay type: functional
Mus musculus [11] = assay: Antihyperlipidemic activity in high fat diet-induced obese C57BL/6J mouse assessed as serum LDL-C levels at 40 mg/kg, ip administered twice daily for 2.5 days measured at 2 hrs post last dose (reference value: 2.54 +/- 0.87 mmol/L); assay type: functional
Mus musculus [12] = assay: Antihyperlipidemic activity in high fat diet-induced obese C57BL/6J mouse assessed as serum HDL-C levels at 40 mg/kg, ip administered twice daily for 2.5 days measured at 2 hrs post last dose (reference value: 1.82 +/- 0.58 mmol/L); assay type: functional
Mus musculus [13] = assay: Antihyperlipidemic activity in high fat diet-induced obese C57BL/6J mouse assessed as reduction in liver triglyceride levels at 20 to 40 mg/kg, ip administered twice daily for 2.5 days measured at 2 hrs post last dose; assay type: functional, organism-based
Mus musculus [14] = assay: Antihyperlipidemic activity in high fat diet-induced obese C57BL/6J mouse assessed as reduction in liver cholesterol levels at 20 to 40 mg/kg, ip administered twice daily for 2.5 days measured at 2 hrs post last dose; assay type: functional, organism-based
Mus musculus [15] = assay: Antihyperlipidemic activity in high fat diet-induced obese C57BL/6J mouse assessed as reduction in triglyceride level in epididymis adipose tissue at 20 to 40 mg/kg, ip administered twice daily for 2.5 days measured at 2 hrs post last dose; assay type: functional, organism-based
Mus musculus [16] = assay: Increase in oxygen consumption in HFFD-induced obese C57BL/6J mouse at 40 mg/kg, ip administered twice daily for 2.5 days measured up to 12.6 hrs under dark condition; assay type: functional, organism-based
Mus musculus [17] = assay: Increase in carbon dioxide production in HFD-induced obese C57BL/6J mouse at 40 mg/kg, ip administered twice daily for 2.5 days incubated for 12.6 hrs under dark condition followed by redosing on day 3 for 2 times; assay type: functional, organism-based
Mus musculus [18] = assay: Effect on respiratory exchange ratios in HFD-induced obese C57BL/6J mouse at 40 mg/kg, ip administered twice daily for 2.5 days incubated for 12.6 hrs under dark condition followed by redosing on day 3 for 2 times; assay type: functional, organism-based
Mus musculus [19] = assay: Down regulation of SREBP1 mRNA expression in HFD-induced obese C57BL/6J mouse liver at 20 to 40 mg/kg, ip administered twice daily for 2.5 days measured at 2 hrs post last dose by RT-PCR analysis; assay type: functional, organism-based
Mus musculus [20] = assay: Down regulation of SREBP1 mRNA expression in HFD-induced obese C57BL/6J mouse adipose tissue at 20 to 40 mg/kg, ip administered twice daily for 2.5 days measured at 2 hrs post last dose by RT-PCR analysis; assay type: functional, organism-based
Mus musculus [21] = assay: Down regulation of FAS mRNA expression in HFD-induced obese C57BL/6J mouse liver at 20 to 40 mg/kg, ip administered twice daily for 2.5 days measured at 2 hrs post last dose by RT-PCR analysis; assay type: functional, organism-based
Mus musculus [22] = assay: Down regulation of HMGCS mRNA expression in HFD-induced obese C57BL/6J mouse liver at 20 to 40 mg/kg, ip administered twice daily for 2.5 days measured at 2 hrs post last dose by RT-PCR analysis; assay type: functional, organism-based
Mus musculus [23] = assay: Down regulation of ACL1 mRNA expression in HFD-induced obese C57BL/6J mouse adipose tissue at 20 to 40 mg/kg, ip administered twice daily for 2.5 days measured at 2 hrs post last dose by RT-PCR analysis; assay type: functional, organism-based
Mus musculus [24] = assay: Down regulation of HMGCS mRNA expression in HFD-induced obese C57BL/6J mouse adipose tissue at 20 to 40 mg/kg, ip administered twice daily for 2.5 days measured at 2 hrs post last dose by RT-PCR analysis; assay type: functional, organism-based
Mus musculus [25] = assay: Down regulation of ABCG5 mRNA expression in HFD-induced obese C57BL/6J mouse liver at 20 to 40 mg/kg, ip administered twice daily for 2.5 days measured at 2 hrs post last dose by RT-PCR analysis; assay type: functional, organism-based
Mus musculus [26] = assay: Down regulation of n-SREBP1 expression in HFD-induced obese C57BL/6J mouse liver at 20 to 40 mg/kg, ip administered twice daily for 2.5 days measured at 2 hrs post last dose by Western blot analysis; assay type: functional, organism-based
Mus musculus [27] = assay: Toxicity in HFFD-induced obese C57BL/6J mouse assessed as serum creatinine level at 40 mg/kg, ip administered twice daily for 2.5 days followed by once daily dosing up to 16 days measured at 2 hrs post last dose (reference value: 100.67 +/- 17.2 umol/L); assay type: organism-based; conditions: in vivo
Mus musculus [28] = assay: Toxicity in HFFD-induced obese C57BL/6J mouse assessed as serum creatinine kinase level at 40 mg/kg, ip administered twice daily for 2.5 days followed by once daily dosing up to 16 days measured at 2 hrs post last dose (reference value: 551.93 +/- 126.48 U/L); assay type: organism-based; conditions: in vivo

COC(=O)C1=CCC[C@H]2[C@](C)(C[C@@H](O[C@@H]3O[C@H](CO)[C@@H](O)[C@H](O)[C@H]3O)c3ccoc3)[C@H]3C[C@H](OC3=O)[C@@]12C
Activity (Mus musculus [1]): Active | Activity (Mus musculus [2]): Active | Activity (Mus musculus [3]): Active | Activity (Mus musculus [4]): Active | Activity (Mus musculus [5]): Active | Activity (Mus musculus [6]): Active | Activity (Mus musculus [7]): Active | Activity (Mus musculus [8]): 1.09 mmol/L | Activity (Mus musculus [9]): 1.39 mmol/L | Activity (Mus musculus [10]): 0.5 mmol/L | Activity (Mus musculus [11]): 1.65 mmol/L | Activity (Mus musculus [12]): 1.31 mmol/L | Activity (Mus musculus [13]): Active | Activity (Mus musculus [14]): Active | Activity (Mus musculus [15]): Active | Activity (Mus musculus [16]): Active | Activity (Mus musculus [17]): Active | Activity (Mus musculus [18]): inactive | Activity (Mus musculus [19]): Active | Activity (Mus musculus [20]): Active | Activity (Mus musculus [21]): Active | Activity (Mus musculus [22]): Active | Activity (Mus musculus [23]): Active | Activity (Mus musculus [24]): Active | Activity (Mus musculus [25]): Active | Activity (Mus musculus [26]): Active | Activity (Mus musculus [27]): 86.37 µmol/L | Activity (Mus musculus [28]): 520.4 U/L
